Three compounds from ChEMBL document CHEMBL1151131, “Bioactivity of the essential oil of Bupleurum fruticosum” (1989) can be followed below.

Assay [1] deals with Rattus norvegicus. In words: Antiinflammatory activity against carrageenan-induced plantar edema in Wistar rat hind paw at 80 mg/kg, ip administered 1 hr before carrageenan challenge measured after 1 hrs. It is filed as functional. To be noted: route intraperitoneal. (In general: In the carrageenan paw model, swelling and tenderness develop within hours.)
Assay [2] relates to Rattus norvegicus. In words: Antiinflammatory activity against carrageenan-induced plantar edema in Wistar rat hind paw at 80 mg/kg, ip administered 1 hr before carrageenan challenge measured after 3 hrs. It is filed as functional. To be noted: route intraperitoneal.
In assay [3] the test system is Rattus norvegicus. Description: Antiinflammatory activity against carrageenan-induced plantar edema in Wistar rat hind paw at 80 mg/kg, ip administered 1 hr before carrageenan challenge measured after 5 hrs. The class given is functional. To be noted: route intraperitoneal.
The subject of assay [4] is Rattus norvegicus. In words: Antiinflammatory activity against carrageenan-induced plantar edema in Wistar rat hind paw at 40 mg/kg, ip administered 1 hr before carrageenan challenge measured after 1 hrs. As to conditions: route intraperitoneal. The class given is functional.
The test system of assay [5] is Rattus norvegicus. Description: Antiinflammatory activity against carrageenan-induced plantar edema in Wistar rat hind paw at 40 mg/kg, ip administered 1 hr before carrageenan challenge measured after 3 hrs. It is filed as functional. To be noted: route intraperitoneal.
Assay [6] has as its system Rattus norvegicus. In words: Antiinflammatory activity against carrageenan-induced plantar edema in Wistar rat hind paw at 40 mg/kg, ip administered 1 hr before carrageenan challenge measured after 5 hrs. The class given is functional. To be noted: route intraperitoneal.
Assay [7] relates to Rattus norvegicus. Description: Antiinflammatory activity against carrageenan-induced plantar edema in Wistar rat hind paw at 20 mg/kg, ip administered 1 hr before carrageenan challenge measured after 1 hrs. It is filed as functional. As to conditions: route intraperitoneal.
For assay [8], the system named is Rattus norvegicus. Description: Antiinflammatory activity against carrageenan-induced plantar edema in Wistar rat hind paw at 20 mg/kg, ip administered 1 hr before carrageenan challenge measured after 3 hrs. As to conditions: route intraperitoneal. It is filed as functional.
The test system of assay [9] is Rattus norvegicus. Description: Antiinflammatory activity against carrageenan-induced plantar edema in Wistar rat hind paw at 20 mg/kg, ip administered 1 hr before carrageenan challenge measured after 5 hrs. It is filed as functional. To be noted: route intraperitoneal.
In assay [10] the test system is Rattus norvegicus. In words: Antiinflammatory activity against carrageenan-induced plantar edema in Wistar rat hind paw at 33 mg/kg, ip administered 1 hr before carrageenan challenge measured after 3 hrs. The class given is functional. As to conditions: route intraperitoneal.
In assay [11] the test system is Rattus norvegicus. In words: Antiinflammatory activity against carrageenan-induced plantar edema in Wistar rat hind paw at 66 mg/kg, ip administered 1 hr before carrageenan challenge measured after 3 hrs. It is filed as functional. As to conditions: route intraperitoneal.
In assay [12] the test system is Uterus. Description: Antispasmodic activity against oxytocin-induced contraction in Wistar rat uterus at 1.1 ug/ml. It is filed as functional, tissue-based.
For assay [13], the system named is Uterus. Description: Antispasmodic activity against oxytocin-induced contraction in Wistar rat uterus at 2.2 ug/ml. The class given is functional, tissue-based.

Activity calls are given as the source filed them. The calls are words filed in the database; no cut-off is given here.

Consider `C=C1CCC2CC1C2(C)C` (stereo not drawn) [BETA-PINENE], for which the Activity with Rattus norvegicus [1] was 8.7%; in the assay on Rattus norvegicus [2], 32.2%; with Rattus norvegicus [3], 31.9%; in the assay with Rattus norvegicus [4] it was 27.5%; in the assay with Rattus norvegicus [5], 19.2%; with Rattus norvegicus [6], 14.9%. The figures for the Activity in the assay with Rattus norvegicus [7], in the assay on Rattus norvegicus [8] and in the assay with Rattus norvegicus [9] were 20.5%, 15.1% and 16.7%, respectively.

Take `CC1=CCC2C(C1)C2(C)C` (configuration not stated) [CARENE]: the values for the Activity with Rattus norvegicus [10] and in the assay on Rattus norvegicus [11] were 50.3% and 77%, respectively. Moreover, the result with Uterus [12] and in the assay with Uterus [13] was Active.

Consider `CC1=CCC2CC1C2(C)C` (stereo not drawn) [ALPHA-PINENE], for which the Activity with Rattus norvegicus [1] turned out to be 19%; in the assay on Rattus norvegicus [2], 26.2%; in the assay on Rattus norvegicus [3] it was 13.2%; in the assay on Rattus norvegicus [4], 20.4%; in the assay with Rattus norvegicus [5] it was 21%; with Rattus norvegicus [6], 14%. Besides, the Activity was 5.6% in the assay with Rattus norvegicus [7], 8.9% in the assay on Rattus norvegicus [8] and -1.6% with Rattus norvegicus [9].
